# Assay results: publication PMC3997483, “Aminostyrylbenzofuran Directly Reduces Oligomeric Amyloid-β and Reverses Cognitive Deficits in Alzheimer Transgenic Mice” (PLoS ONE, 2014)
# Assays:
# [1] = Metabolic stability in liver microsomes; assay type: in vitro ADME; conditions: dog liver microsomes
# [2] = Pharmacokinetics IV/PO in mice; assay type: in vivo, ICR mice; conditions: for AUC(0-t): read-out: AUC0–24h
# Protocol: (§1) Pharmacokinetics profile of KMS88009 was obtained using ICR mice, SD rats, beagle dogs and cynomolgus monkeys. Animals were fasted overnight before KMS88009 administration. Mice were divided into 2 groups to receive KMS88009 as a single dose of 2.1 mg/kg intravenous (IV) bolus or 10 mg/kg orally (PO) by gavage. Additionally, KMS88009 was administered orally to estimate the BBB penetration in mice (10, 30 and 100 mg/kg). […] Dog received KMS88009 either as an IV bolus (1 mg/kg) via the great saphenous vein or by oral gavage (4 mg/kg). KMS88009 was administrated to monkeys as an IV bolus (1 mg/kg) via the femoral vein or by oral gavage (4 mg/kg). Vehicle for IV and PO administration was DMSO/tween-20/saline (3.3∶19.8∶[…]). […]. Brain samples were weighed and Daunce-homogenized in 10-fold volume of ice-chilled 4% bovine serum albumin (BSA) solution at room temperature. Plasma and brain homogenates were kept frozen at −70°C until analysis. The levels of KMS88009 were determined by the LC-MS/MS analysis. Pharmacokinetic parameters, time to the maximum concentration (Tmax), maximum concentration (Cmax), elimination half-life (T1/2), volume of distribution (Vd), clearance (Cl) and mean residual time (MRT), of KMS88009 were calculated based on plasma concentration-time data by a non-compartmental method using WinNonlin Version 5.2 (Pharsight, USA). Area under the curve from 0 to 24 hr (AUC0-24h) and area under the curve from 0 to infinity (AUCINF) were obtained by linear and log linear trapezoidal summations.
# [3] = Pharmacokinetics IV/PO in rats; assay type: in vivo, SD rats; conditions: for AUC(0-t): read-out: AUC0–24h
# Protocol: as §1
# [4] = Plasma and brain pharmacokinetics (BBB penetration) after PO in mice; assay type: in vivo; conditions: for AUC(0-t): read-out: AUC0–24h
# Protocol: as §1
# [5] = test system: Aβ40 and Aβ42; assay: Aβ40/Aβ42 sandwich ELISA of hippocampus, therapeutic trial; assay type: in vivo, mouse; conditions: 30 mg/kg/day, 3 months
# Protocol: Mice subjected to behavior tests were sacrificed and levels of Aβ in their brains were analyzed. After removing olfactory lobe and cerebellum of brain, hippocampus and cerebral cortex were separated. The separated regions were Dounce-homogenized first in 10-fold mass of a lysis buffer (RIPA, 150 mM NaCl, 1% NP-40, 0.5% deoxycholic acid, 0.1% SDS and 50 mM tris, pH 8.0) or tris buffer (50 mM tris and pH 8.0) containing protease inhibitor cocktail (Pierce, USA) for prophylactic or therapeutic treatment groups, respectively. The homogenates were then centrifuged at 16,000 g for 20 min at 4°C. The supernatant (soluble Aβ fraction) was collected and stored at −70°C until analyzed. The resulting pellet was solubilized in 20-fold mass of cold guanidine solution (5 M guanidine HCl, 50 mM tris HCl and pH 8.0) at room temperature for 4 hr followed by dilution with cold Dulbecco's phosphate buffered saline (PBS) with 5% BSA and 0.03% tween-20. The diluent was centrifuged at 16,000 g for 20 min at 4°C to obtain the insoluble Aβ fraction. The tissue concentrations of Aβ40 and Aβ42 in the soluble and insoluble fraction were measured using Aβ-detecting sandwich enzyme-linked immunosorbent assay (ELISA) kit (BioSource, USA). The levels of soluble Aβ oligomers were measured by a dot-blot immunoassay with an anti-oligomer antibody and an anti-Aβ antibody on soluble fraction of hippocampus homogenates. The homogenate sample (3 µL) was spotted onto nitrocellulose membrane (Whatman, UK). After blocking with 5% BSA in tris-buffered saline (TBS) for 1 hr at room temperature, the membrane was incubated with rabbit anti-oligomer polyclonal antibody (A11; 1∶1,000; Millipore, USA) overnight at 4°C, followed by incubation with HRP-secondary anti-rabbit antibody (1∶5,000; Millipore, USA) for 1 hr at room temperature. Blots were developed using ECL reagents (PerkinElmer, USA). […] The density of dots was analyzed with Multi Gauge program (Fuji Film, Japan) and the data was normalized to the average density of the TG control group. […]
# [6] = ICR, plasma, mouse IV 2.1 mg/kg
# [7] = ICR, mouse IV 2.1 mg/kg, plasma
# [8] = ICR, mouse, brain, mice PO 10 mg/kg
# [9] = ICR, mouse, brain, mice PO 30 mg/kg
# [10] = ICR, mouse, brain, mice PO 100 mg/kg
# [11] = ICR, mouse, plasma, mice PO 10 mg/kg
# [12] = ICR, mouse, plasma, mice PO 30 mg/kg
# [13] = ICR, mouse, plasma, mice PO 100 mg/kg
smiles,measurement,setting,value
"COc1ccc2cc(C=Cc3ccc(N(C)C)cc3)oc2c1 [KMS88009, 6-methoxy-2-(4-dimethylaminostyryl) benzofuran]",half-life at 5 µM,[1],0.355 ± 0.0133 h
same,"remaining at 1 h, 5 µM",[1]; read-out: Remaining % of parent molecule at 60 min.,14.8 ± 0.2%
same,MRT last,[2]; [6],2.9 h
same,Vd,[2]; [6],32.1 L/kg
same,clearance,[2]; [6],63.3 mL/min/kg
same,half-life,[2]; [6],5.9 h
same,MRT last,"[2]; ICR, plasma, mouse PO 10 mg/kg",5.5 h
same,Tmax,"[2]; ICR, plasma, mouse PO 10 mg/kg",1 h
same,half-life,"[2]; ICR, plasma, mouse PO 10 mg/kg",4.6 h
same,AUC(0-inf),[2]; [7],1330 ng·h/mL
same,AUC(0-t),[2]; [7],1300 ng·h/mL
same,AUC(0-inf),"[2]; ICR, mouse PO 10 mg/kg, plasma",6310 ng·h/mL
same,Cmax,"[2]; ICR, mouse PO 10 mg/kg, plasma",1060 ng/mL
same,AUC(0-t),"[2]; ICR, mouse PO 10 mg/kg, plasma",6160 ng·h/mL
same,BA,[2]; mouse PO 10 mg/kg vs IV […],99.6%
same,MRT last,"[3]; SD, plasma, rat IV 1.25 mg/kg",1.8 h
same,Vd,"[3]; SD, plasma, rat IV 1.25 mg/kg",8 L/kg
same,clearance,"[3]; SD, plasma, rat IV 1.25 mg/kg",13.3 mL/min/kg
same,half-life,"[3]; SD, plasma, rat IV 1.25 mg/kg",7.2 h
same,MRT last,"[3]; SD, plasma, rat PO 2.5 mg/kg",4 h
same,half-life,"[3]; SD, plasma, rat PO 2.5 mg/kg",4 h
same,AUC(0-inf),"[3]; SD, rat IV 1.25 mg/kg, plasma",1670 ng·h/mL
same,AUC(0-t),"[3]; SD, rat IV 1.25 mg/kg, plasma",1640 ng·h/mL
same,AUC(0-inf),"[3]; SD, rat PO 2.5 mg/kg, plasma",929 ng·h/mL
same,AUC(0-t),"[3]; SD, rat PO 2.5 mg/kg, plasma",908 ng·h/mL
same,BA,[3]; rat PO […] vs IV 1.25 mg/kg,27.8%
same,Kp,"[4]; ICR, mouse, brain, mice, PO, read-out: Level (AUC0–24h) in the brain relative to plasma",> 12
same,Cmax,[4]; [8],6370 ng/g
same,Tmax,[4]; [8],2 h
same,Cmax,[4]; [9],17800 ng/g
same,Tmax,[4]; [9],4 h
same,Cmax,[4]; [10],23300 ng/g
same,Tmax,[4]; [10],10 h
same,Cmax,[4]; [11],744 ng/mL
same,Tmax,[4]; [11],1 h
same,AUC(0-t),[4]; [11],4570 ng·h/mL
same,Cmax,[4]; [12],1640 ng/mL
same,Tmax,[4]; [12],1 h
same,AUC(0-t),[4]; [12],13400 ng·h/mL
same,Cmax,[4]; [13],2710 ng/mL
same,Tmax,[4]; [13],2 h
same,AUC(0-t),[4]; [13],30500 ng·h/mL
same,AUC0–24h,"[4]; brain, mice PO 10 mg/kg",55395.5 ng·h/g
same,AUC0–24h,"[4]; brain, mice PO 30 mg/kg",205268.3 ng·h/g
same,AUC0–24h,"[4]; brain, mice PO 100 mg/kg",367538.5 ng·h/g
same,decrease of insoluble Aβ42 level vs TG littermates,[5],50.9%
same,decrease of insoluble Aβ40 level vs TG mice,[5]; not statistically significant,44.9%
same,decrease of soluble Aβ40 level vs TG mice,[5]; not statistically significant,19.4%
